Measurements taken from patent US9199981B2 (NOVARTIS AG, priority 2011, dated 2015).
pIC50: −log10 of the molar value.

Each molecule was assayed against c-kit (Homo sapiens (Human), UniProt P10721) (assay: Mo7e cell proliferation assay (SCF dependent proliferation)). Conditions: Mo7e cells stimulated with human recombinant SCF, 48 hours, 1% FBS.
Assay type: cell-based
Protocol: Compounds of Formula (I) and Formula (II) provided herein were assayed to measure their capacity to inhibit c-kit and PDGFR kinases using the appropriate assay described below: c-Kit inhibition was evaluated using the Mo7e cell proliferation assay, and PDGFR inhibition was evaluated using the Rat A10 cell proliferation assay and the Human TG/HA-VSMC cell proliferation assay.
Mo7e Cell Proliferation Assay
The compounds of Table 1 and Table 2 were tested for inhibition of SCF dependent proliferation using human Mo7e cells which endogenously express c-kit in a 384 well format. […] After 48 hours of incubation at 37° C., cell viability was measured by adding 25 uL of CellTiter Glo (Promega) to the cells and the luminescence was measured by a CLIPR CCD camera (Molecular Devices).
The IC50 value is given as that concentration of the test compound in question that provoke a response halfway between the baseline and maximum responses.

c-kit, sequence (P10721 26-976): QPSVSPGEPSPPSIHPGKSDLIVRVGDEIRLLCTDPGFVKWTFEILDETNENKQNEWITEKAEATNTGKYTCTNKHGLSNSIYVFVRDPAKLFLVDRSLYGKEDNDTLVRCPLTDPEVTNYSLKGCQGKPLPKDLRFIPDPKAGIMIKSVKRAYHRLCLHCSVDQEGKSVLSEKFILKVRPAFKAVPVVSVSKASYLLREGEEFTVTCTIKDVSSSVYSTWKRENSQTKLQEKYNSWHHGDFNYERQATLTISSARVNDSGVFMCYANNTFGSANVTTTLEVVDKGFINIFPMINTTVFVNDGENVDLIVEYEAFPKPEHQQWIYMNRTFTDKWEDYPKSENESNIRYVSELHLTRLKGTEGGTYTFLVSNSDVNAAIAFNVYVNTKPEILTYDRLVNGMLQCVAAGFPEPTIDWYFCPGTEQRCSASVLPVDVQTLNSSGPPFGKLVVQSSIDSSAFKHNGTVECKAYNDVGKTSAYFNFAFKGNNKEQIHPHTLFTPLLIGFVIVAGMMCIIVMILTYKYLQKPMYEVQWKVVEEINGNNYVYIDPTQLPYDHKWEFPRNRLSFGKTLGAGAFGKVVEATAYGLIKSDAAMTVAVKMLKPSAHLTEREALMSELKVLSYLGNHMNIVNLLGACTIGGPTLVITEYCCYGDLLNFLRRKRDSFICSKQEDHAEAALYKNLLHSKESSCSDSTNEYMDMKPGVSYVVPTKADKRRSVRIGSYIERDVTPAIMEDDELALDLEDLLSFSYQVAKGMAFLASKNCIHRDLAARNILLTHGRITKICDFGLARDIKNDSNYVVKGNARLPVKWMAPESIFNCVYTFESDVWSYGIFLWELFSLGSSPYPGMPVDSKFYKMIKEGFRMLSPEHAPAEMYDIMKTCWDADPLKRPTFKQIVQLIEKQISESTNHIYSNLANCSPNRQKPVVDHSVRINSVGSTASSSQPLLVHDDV

Row | Structure (SMILES) | pIC50
1 | Cc1ccc(-c2nc(C3CC(F)(F)C3)no2)cc1NC(=O)c1cnc2ccccn12 [F1] | 7.62
2 | Cc1ccc(-c2noc(C3CC(=NO)C3)n2)cc1NC(=O)c1cnc2ccccn12 (stereo not drawn) [F4] | 7.66
3 | Cc1ccc(-c2noc(C3CC4(C3)OCCO4)n2)cc1NC(=O)c1cnc2ccccn12 [F8, N-(5-(5-(5,8-dioxaspiro[3.4]octan-2-yl)-1,2,4-oxadiazol-3-yl)-2-methylphenyl)imidazo[1,2-a]pyridine-3-carboxamide] | 7.26
4 | Cc1ccc(-c2noc(C3CC4(C3)OCCCO4)n2)cc1NC(=O)c1cnc2ccccn12 [F10] | 7.28
5 | Cc1ccc(-c2noc(C3CC(=NOCC4CC4)C3)n2)cc1NC(=O)c1cnc2ccccn12 (stereo not drawn) [F15] | 7.46
6 | Cc1ccc(-c2noc(C3CC(=NOC(C)C)C3)n2)cc1NC(=O)c1cnc2ccccn12 (stereo not drawn) [F16] | 7.18
7 | COCC1(c2nc(-c3ccc(C)c(NC(=O)c4cnc5ccccn45)c3)no2)CC1 [F20] | 7.31
8 | Cc1ccc(-c2noc(C3(NC(=O)OC(C)(C)C)CC3)n2)cc1NC(=O)c1cnc2ccccn12 [F21] | 7.05
9 | Cc1ccc(-c2noc(C3(NS(C)(=O)=O)CC3)n2)cc1NC(=O)c1cnc2ccccn12 [F22] | 7.25
10 | COC(=O)NC1(c2nc(-c3ccc(C)c(NC(=O)c4cnc5ccccn45)c3)no2)CC1 [F24] | 7.24

Next, values leading:

Row | pIC50 | Structure (SMILES)
11 | 7.34 | Cc1ccc(-c2noc([C@H]3CC3(F)F)n2)cc1NC(=O)c1cnc2ccccn12 (stereo in doubt) [F87, N-(5-(5-(2,2-difluorocyclopropyl)-1,2,4-oxadiazol-3-yl)-2-methylphenyl)imidazo[1,2-a]pyridine-3-carboxamide]
12 | 7.18 | Cc1ccc(-c2noc([C@@H]3CC3(F)F)n2)cc1NC(=O)c1cnc2ccccn12 (stereo in doubt) [F88, N-(5-(5-(2,2-difluorocyclopropyl)-1,2,4-oxadiazol-3-yl)-2-methylphenyl)imidazo[1,2-a]pyridine-3-carboxamide]
13 | 7.62 | Cc1ccc(-c2noc(C3CCC(F)(F)CC3)n2)cc1NC(=O)c1cnc2ccccn12 [F5]
14 | 6.92 | Cc1ccc(-c2noc([C@H]3C[C@@](C)(O)C3)n2)cc1NC(=O)c1cnc2ccccn12 [F6, N-(5-(5-((1s,3s)-3-hydroxy-3-methylcyclobutyl)-1,2,4-oxadiazol-3-yl)-2-methylphenyl)imidazo[1,2-a]pyridine-3-carboxamide]
15 | 7.82 | CON=C1CC(c2nc(-c3ccc(C)c(NC(=O)c4cnc5ccccn45)c3)no2)C1 (stereo not drawn) [F7, N-(5-(5-(3-(methoxyimino)cyclobutyl)-1,2,4-oxadiazol-3-yl)-2-methylphenyl)imidazo[1,2-a]pyridine-3-carboxamide]
16 | 7.28 | Cc1ccc(-c2noc(C3CC4(C3)OC[C@@H](C)O4)n2)cc1NC(=O)c1cnc2ccccn12 (stereo partly drawn) [F9]
17 | 7.92 | Cc1ccc(-c2noc(C3CC4(C3)OC[C@H](C)O4)n2)cc1NC(=O)c1cnc2ccccn12 (stereo partly drawn) [F12]
18 | 7.92 | CCON=C1CC(c2nc(-c3ccc(C)c(NC(=O)c4cnc5ccccn45)c3)no2)C1 (stereo not drawn) [F14]
19 | 6.96 | Cc1ccc(-c2noc([C@H]3C[C@H](N)C3)n2)cc1NC(=O)c1cnc2ccccn12 [F17]
20 | 7.60 | COCCO[C@H]1C[C@@H](c2nc(-c3ccc(C)c(NC(=O)c4cnc5ccccn45)c3)no2)C1 [F18, N-(5-(5-((1s,3s)-3-(2-methoxyethoxy)cyclobutyl)-1,2,4-oxadiazol-3-yl)-2-methylphenyl)imidazo[1,2-a]pyridine-3-carboxamide]
21 | 8.05 | [2H]C([2H])([2H])O[C@H]1C[C@@H](c2nc(-c3ccc(C)c(NC(=O)c4cnc5ccccn45)c3)no2)C1 [F19]

Same assay, conditions: Mo7e cells stimulated with human recombinant SCF, 48 hours, 20% FBS (values marked *)

Row | pIC50 | Structure (SMILES)
22 | 7.24 | Cc1ccc(-c2noc(C3CCC(=O)C3)n2)cc1NC(=O)c1cnc2ccccn12 (stereo not drawn) [F2]
23 | 6.79 | Cc1ccc(-c2noc(C3CC(C)(O)C3)n2)cc1NC(=O)c1cnc2ccccn12 (stereo not drawn) [F3]
24 | 7.39 | Cc1ccc(-c2noc(C3CC(=O)C3)n2)cc1NC(=O)c1cnc2ccccn12 [F11]
